Literature values as cited in patent US7098242B2, “Dihydroartemisinin and dihydroartemisitene dimers as anti-cancer and anti-infective agents” (The University of Mississippi, priority 2002, dated 2006).

Columns and labels:
[1] = test system: chloroquine-sensitive and chloroquine-resistant strains of Plasmodium falciparum

Row | Compound | anti-malarial activity [1] | activity relative to other artemisinin derivatives (malaria)
1 | C[C@@H]1CC[C@H]2[C@@H](C)C(=O)O[C@@H]3O[C@@]4(C)CC[C@@H]1[C@]32OO4 [artemisinin] | anti-malarial activity against both chloroquine-sensitive and chloroquine-resistant strains | –
2 | C[C@H]1[C@H](OC(=O)CCC(=O)[O-])O[C@@H]2O[C@@]3(C)CC[C@H]4[C@H](C)CC[C@@H]1[C@@]24OO3.[Na+] [sodium artesunate] | – | more activity
